“And” between values parts separate entries of the source, which are not always exact repeats. Identical values can stand only once. Like-named read-outs stand apart in the source and are kept apart here.
Legend:
[1] = Metabolite identification in liver microsomes; type: in vitro ADME; conditions: 10 μM R-VK4-116, 120 min
Experimental: Reactions were stopped by removing 100 μl aliquots at 120 min and mixing with 200 μl of acetonitrile. Following brief vortexing and centrifugation, the supernatant was transferred to an HPLC vial fitted with a 300 μl glass insert for metabolite analysis using a Sciex 4000QTrap mass spectrometer.

[2] = Phospholipidosis and steatosis, high content screening; type: cell-based; parameters: key to Cell count, Trend (↑↓) / Nuclear size, Trend (↑↓) / DNA structure, Trend (↑↓) / Phospholipidosis, Trend (↑↓) / Steatosis, Trend (↑↓): ↑: increasing trend of response; ↓: decreasing trend of response; conditions: human, HepG2 cells
HepG2 cells = assay: as above; type: cell-based; parameters: key to Cell count, Trend (↑↓) / Nuclear size, Trend (↑↓) / DNA structure, Trend (↑↓) / Phospholipidosis, Trend (↑↓) / Steatosis, Trend (↑↓): ↑: increasing trend of response; ↓: decreasing trend of response
[3] = system: 403 non-mutant human kinases; conditions: screening concentration 1 µM, S-score with % Control <35
Experimental: Briefly, E. coli host derived from the BL21 strain were grown to log-phase and infected with kinase-tagged T7 phage and incubated with shaking at 32°C until lysis. The lysates were centrifuged and filtered to remove cell debris. The remaining kinases were produced in HEK-293 cells and subsequently tagged with DNA for qPCR detection. Streptavidin-coated magnetic beads were treated with biotinylated small molecule ligands to generate affinity resins for kinase assays. The liganded beads were blocked with excess biotin and washed to remove unbound ligand and to reduce non-specific phage binding. […] Selectivity Score (S-score) was a quantitative measure of compound selectivity. […] The binding constants (Kds) were also determined with a standard dose-response curve using the Hill equation and Levenberg-Marquardt algorithm [24, 25].

D3R = system: D3R; parameters: method as in PMID 31526003; conditions: read-out: antagonist effect on D3R (IC50); cited from earlier work
[4] = Metabolic stability in hepatocyte; conditions: human, hepatocytes in suspension
Experimental: (§1) CYP3A4 substrate Midazolam (10 μM) was prepared and incubated in the same manner. […] In addition, in vitro half-life (t1/2, min) and intrinsic clearance (CLint, μl/min/10^6 cells) were calculated [10, 11].

human hepatocytes = assay: Metabolic stability in hepatocyte; conditions: for % remaining Vs T = 0 min: human hepatocytes
Experimental: as §1

[5] = Metabolic stability in liver microsomes; conditions: dog, pH 7.4
CYP1A2 = target: T1, CYP1A2 (Homo sapiens, UniProt P05177); assay: CYP inhibition in human liver microsomes; conditions: human liver microsomes
T1 sequence (P05177 1-516): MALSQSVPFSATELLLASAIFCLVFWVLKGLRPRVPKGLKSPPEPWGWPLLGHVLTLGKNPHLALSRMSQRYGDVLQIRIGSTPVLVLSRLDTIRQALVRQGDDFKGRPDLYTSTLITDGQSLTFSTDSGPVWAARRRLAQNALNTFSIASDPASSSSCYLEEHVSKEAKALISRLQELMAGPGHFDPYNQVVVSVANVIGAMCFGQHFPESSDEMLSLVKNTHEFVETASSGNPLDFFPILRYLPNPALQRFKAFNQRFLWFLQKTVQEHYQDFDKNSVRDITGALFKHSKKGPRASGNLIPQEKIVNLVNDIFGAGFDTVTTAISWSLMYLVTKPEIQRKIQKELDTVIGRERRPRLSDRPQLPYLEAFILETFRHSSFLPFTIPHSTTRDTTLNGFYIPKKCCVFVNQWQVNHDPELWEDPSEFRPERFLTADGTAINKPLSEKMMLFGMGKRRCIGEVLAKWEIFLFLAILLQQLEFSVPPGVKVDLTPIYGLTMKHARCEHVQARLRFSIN

CYP2B6 mRNA = assay: CYP induction, mRNA, primary cultured human hepatocytes; conditions: primary cultured human hepatocytes, Fold Induction (CYP2B6 mRNA expression)
From the text: (§2) Rifampicin as a positive control and solvent (0.1% DMSO) vehicle control were also included. The acceptance criteria for CYP induction was ≥ 2-fold induction for significant CYP activity, while the acceptance criteria for CYP mRNA was ≥ 4-fold for significant CYP induction.

CYP2B6 = assay: as above; conditions: primary cultured human hepatocytes, Fold Induction (CYP2B6 mRNA expression)
From the text: as §2

[6] = Sprague Dawley (rat), Beagle (dog), rat, dog
[7] = heat-inactivated liver microsomes

Structure (SMILES): CCc1cc(Cl)c(OC)c(N2CCN(CC(O)CCNC(=O)c3cc4ccccc4[nH]3)CC2)c1 (stereo not shown) [R-VK4-116, N-(4-(4-(3-chloro-5-ethyl-2-methoxyphenyl)piperazin-1-yl)-3-hydroxybutyl)-1H-indole-2-carboxamide]
- % Area ([1]; dog liver microsomes, MRM product ion 116.1): 10.4%
- % Area ([1]; dog liver microsomes, MRM product ion 144.1): 28.6%
- % Area ([1]; human liver microsomes, MRM product ion 116.1): 62.4%
- % Area ([1]; human liver microsomes, MRM product ion 144.1): 4.1%
- % Area ([1]; rat liver microsomes, MRM product ion 116.1): 8.2%
- % Area ([1]; rat liver microsomes, MRM product ion 144.1): 86.1%
- AC50 ([2]; # AC50 greater than the maximum surviving concentration, (NS) = not statistically significant, read-out: Steatosis, AC50): > 100 µM
- AC50 ([2]; read-out: Cell count, AC50): > 100 µM
- AC50 ([2]; read-out: DNA structure, AC50): > 100 µM
- AC50 ([2]; read-out: Nuclear size, AC50): > 100 µM
- AC50 ([2]; read-out: Phospholipidosis, AC50): 10.7 µM
- Phospholipidosis, Trend (↑↓) (HepG2 cells): ↑
- Steatosis, Trend (↑↓) (HepG2 cells): ↑
- Steatosis, MEC (HepG2 cells; (NS) = not statistically significant): 14.2 μM and 14.2 (NS) μM
- Selectivity score [3]: 0.012
- IC50 (D3R): 0.35 µM
- half-life at 0.5 μM [4, 6]: 1.52 to 1.95 h
- half-life at 10 μM [4, 6]: 2.82 to 5.78 h
- hepatocyte CLint at 0.5 μM [4, 6]: 12 to 16 µL/min/1e6 cells
- hepatocyte CLint at 10 μM [4, 6]: 4 to 8 µL/min/1e6 cells
- half-life at 0.5 μM [4]: 1.95 h
- half-life at 10 μM [4]: 5.63 h
- hepatocyte CLint at 0.5 μM [4]: 11.8 µL/min/1e6 cells
- hepatocyte CLint at 10 μM [4]: 4.1 µL/min/1e6 cells
- % remaining Vs T = 0 min (human hepatocytes; 0.5 μM, 0 min): 100.0%
- % remaining Vs T = 0 min (human hepatocytes; 0.5 μM, 30 min): 89.1%
- % remaining Vs T = 0 min (human hepatocytes; 0.5 μM, 60 min): 78.4%
- % remaining Vs T = 0 min (human hepatocytes; 0.5 μM, 90 min): 65.4%
- % remaining Vs T = 0 min (human hepatocytes; 0.5 μM, 120 min): 48.1%
- % remaining Vs T = 0 min (human hepatocytes; 10 μM, 0 min): 100.0%
- % remaining Vs T = 0 min (human hepatocytes; 10 μM, 30 min): 93.2%
- % remaining Vs T = 0 min (human hepatocytes; 10 μM, 60 min): 85.5%
- % remaining Vs T = 0 min (human hepatocytes; 10 μM, 90 min): 78.9%
- % remaining Vs T = 0 min (human hepatocytes; 10 μM, 120 min): 79.7%
- metabolic stability (human hepatocytes; human, rat, or dog hepatocytes, 0.5 and 10 μM): metabolically stable
- remaining at 0 h, 1 μM [5, 7]: 100%
- remaining at 0 h, 10 μM [5, 7]: 100%
- remaining at 2 h, 1 μM [5, 7]: 90.7%
- remaining at 2 h, 10 μM [5, 7]: 90.6%
- remaining at 0 h, 1 μM ([5]; liver microsomes): 100%
- remaining at 0 h, 10 μM ([5]; liver microsomes): 100%
- remaining at 0.5 h, 1 μM ([5]; liver microsomes): 44.6%
- remaining at 0.5 h, 10 μM ([5]; liver microsomes): 74.3%
- remaining at 1 h, 1 μM ([5]; liver microsomes): 22.5%
- remaining at 1 h, 10 μM ([5]; liver microsomes): 64.5%
- remaining at 1.5 h, 1 μM ([5]; liver microsomes): 22.3%
- remaining at 1.5 h, 10 μM ([5]; liver microsomes): 55.6%
- remaining at 2 h, 1 μM ([5]; liver microsomes): 19.7%
- remaining at 2 h, 10 μM ([5]; liver microsomes): 49.9%
- CYP1A2 inhibition (CYP1A2; up to 100 μM): did not inhibit CYP significantly
- activity at 20 min, 0.1 µM (CYP1A2; human, probe phenacetin): 93.7 ± 5.5%
- activity at 20 min, 0.3 µM (CYP1A2; human, probe phenacetin): 87.7 ± 2.4%
- activity at 20 min, 1 µM (CYP1A2; human, probe phenacetin): 89.9 ± 0.9%
- activity at 20 min, 3 µM (CYP1A2; human, probe phenacetin): 95.7 ± 5.2%
- activity at 20 min, 10 µM (CYP1A2; human, probe phenacetin): 96.3 ± 4.7%
- activity at 20 min, 30 µM (CYP1A2; human, probe phenacetin): 88.7 ± 1.9%
- activity at 20 min, 60 µM (CYP1A2; human, probe phenacetin): 88.2 ± 2.3%
- activity at 20 min, 100 µM (CYP1A2; human, probe phenacetin): 94 ± 5.2%
- fold induction at 48 h, 10 µM (CYP2B6 mRNA; hepatocyte Lot 336, 10 µM): 1.9
- fold induction at 48 h, 0.01 µM (CYP2B6 mRNA; hepatocyte Lot 348B, 0.01 µM): 0.98
- fold induction at 48 h, 0.1 µM (CYP2B6 mRNA; hepatocyte Lot 348B, 0.1 µM): 1.2
- fold induction at 48 h, 1 µM (CYP2B6 mRNA; hepatocyte Lot 348B, 1 µM): 1
- fold induction at 48 h, 3 µM (CYP2B6 mRNA; hepatocyte Lot 348B, 3 µM): 1.1
- fold induction at 48 h, 5 µM (CYP2B6 mRNA; hepatocyte Lot 348B, 5 µM): 1.1
- fold induction at 48 h, 10 µM (CYP2B6 mRNA; hepatocyte Lot 348B, 10 µM): 1.1
- fold induction at 48 h, 0.01 µM (CYP2B6 mRNA; hepatocyte Lot 399, 0.01 µM): 1.1
- fold induction at 48 h, 0.01 µM (CYP2B6; hepatocyte Lot 336, 0.01 µM): 1
- fold induction at 48 h, 0.1 µM (CYP2B6; hepatocyte Lot 336, 0.1 µM): 1
- fold induction at 48 h, 1 µM (CYP2B6; hepatocyte Lot 336, 1 µM): 1.3
- fold induction at 48 h, 3 µM (CYP2B6; hepatocyte Lot 336, 3 µM): 1.9
- fold induction at 48 h, 5 µM (CYP2B6; hepatocyte Lot 336, 5 µM): 1.8
- fold induction at 48 h, 0.1 µM (CYP2B6; hepatocyte Lot 399, 0.1 µM): 1.2
- fold induction at 48 h, 1 µM (CYP2B6; hepatocyte Lot 399, 1 µM): 1.2
- fold induction at 48 h, 3 µM (CYP2B6; hepatocyte Lot 399, 3 µM): 1.3
- fold induction at 48 h, 5 µM (CYP2B6; hepatocyte Lot 399, 5 µM): 1.2
- fold induction at 48 h, 10 µM (CYP2B6; hepatocyte Lot 399, 10 µM): 1.2
